pIC50: −log10 of the molar value. Like-named read-outs stand apart in the source and are kept apart here. Ends that are not written are not given here. * marks the point of attachment. Methacryloyl = C=C(C)C(=O)*
What was measured:
[1] = test system: E-selectin expressing cells (human IVECs); assay: Confocal microscopy of uptake and lysosomal colocalization of FITC-labeled copolymer conjugates in IVECs; type: cell-based; conditions: Example 17, activated and non-activated human IVECs (FIG. 14)
Procedure: Internalization of P-sLe^x-FITC and P-QA-FITC conjugates by endothelial cells was studied using confocal laser scanning microscopy (CLSM). Human IVECs grown on cover glass, and treated with the polymer conjugate, and probed for localization of the polymer within lysosomal vessicles. After 24 hours incubation, cells are washed with cold phosphate-buffered saline (PBS) and fixed with 4% PFA. The cells on the cover glass are mounted in antibleach reagent on slides, examined using a CLSM, and analyzed.
Confocal microscopy was used to evaluate the subcellular fate of the FITC labeled copolymer conjugates by human immortalized vascular endothelial cells, IVECs. Lysotracker Red DND-99 (Molecular Probes, Leiden, The Netherlands) was selected to visualize lysosomes. Cells ([…]) were seeded onto gelatin coated cover slips in 24 wells plate with 500 μL endothelial cells culture medium (Promocell) and incubated for 24 hr. […] Quantitative analysis was performed using Image-Pro Plus 4.0 (Media Cybernetics, Silver Spring, Md.). Fluorescence intensities were expressed in arbitrary units per square micron. […]
Confocal microscopy was used to evaluate the uptake of P-Esbp. […] After removal of medium cells were incubated with 0.5 ml medium with 50 μg/ml of FITC labeled P-Esbp solution for 6 or 24 hours and subjected to fluorescence microscopy. […]

[2] = test system: E-selectin expressing cells (IVECs); assay: Flow cytometry of binding and uptake of FITC-labeled conjugates by IVECs; type: cell-based, human; conditions: 1 h at 4° C., E-selectin expressing cells (FIG. 12)
Procedure: FIG. 11A-F depicts the results of flow cytometry assays of IVECs incubated with P-Esbp at different temperatures. FIGS. 11(A)-(D) depict results of IVECs incubated 4° C. for 1 hour, while FIGS. 11(E)-(F) depict results of IVECs incubated 37° C. for 15 hr in activated (F) and non-activated (E) cells. FIGS. 11A and 11B show results of incubation with P-Esbp at a concentration of 10 and 50 μg/ml, respectively in TNF-α activated cells, versus 11C and D, which show the results of non-activated cells incubated with the same concentration of P-Ebsp, respectively. Fluorescence, size and number of cells were all measured with GUAVA Tech-Mini Easycyte at 520 nm. Statistical analysis of the results was performed with Cytosoft software (GUAVA Tech). Gates for size and fluorescence were set according to the control experiment with P-GG-OH incubated with non activated IVEC cells.
At 37° C. […]
E-selectin expressing cells were treated with P-Esbp and P-Scrmb as described in previous examples, to determine binding, in activated and non-activated cells (FIG. 12). Cells were treated with P-Esbp and P-Scrmb conjugates for 1 h at 4° C. and evaluated for binding. […] Binding of P-Esbp and scrambled Esbp peptide sequence polymer conjugates (P-Scrmb) to E-selectin expressing cells was similarly evaluated, when cells were also contacted with or without free peptides (FIG. 13). […]

E-selectin = molecular target: T1, E-selectin (Homo sapiens, UniProt P16581); assay: Inhibition of HL-60 adhesion to recombinant soluble E-selectin coated plates (competitive inhibition assay); type: binding
T1 sequence (P16581 22-556 limits assumed): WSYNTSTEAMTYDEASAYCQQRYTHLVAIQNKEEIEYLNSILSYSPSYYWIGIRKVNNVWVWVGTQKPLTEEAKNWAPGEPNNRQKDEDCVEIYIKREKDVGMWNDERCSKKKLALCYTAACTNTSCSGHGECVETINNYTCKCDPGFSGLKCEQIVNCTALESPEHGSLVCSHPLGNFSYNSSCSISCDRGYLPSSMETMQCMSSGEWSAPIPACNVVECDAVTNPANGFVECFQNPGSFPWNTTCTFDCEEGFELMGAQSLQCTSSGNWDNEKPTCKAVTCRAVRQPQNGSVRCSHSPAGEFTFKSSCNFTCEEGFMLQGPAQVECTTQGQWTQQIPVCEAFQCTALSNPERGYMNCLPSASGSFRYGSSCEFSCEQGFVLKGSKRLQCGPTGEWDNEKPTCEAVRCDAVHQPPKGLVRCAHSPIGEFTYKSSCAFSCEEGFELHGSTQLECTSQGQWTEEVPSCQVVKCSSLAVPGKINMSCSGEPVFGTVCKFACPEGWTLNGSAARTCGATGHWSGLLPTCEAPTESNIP
Procedure: The percentage of bound HL-60 cells is determined with o-phenylenediamine as a substrate for myeloperoxidases released from lysed cells. […] FIG. 3B depicts binding in the presence of P-Glu-Gly-QA, PAAsLe^x and pHPMA polymers; FIG. 3C depicts binding of P-Glu-Gly-QA and P-Gly-Gly-Lys(Glu)-QA conjugates.
Affinity of Esbp and P-Esbp to E-selectin was evaluated by a competitive inhibition assay of HL-60 to immobilized E-selectin. […] FIG. 7B the results of an inhibition assay with P-Esbp and P-GG-OH, under the same procedure as in FIG. 7A. In this figure diamonds are P-Esbp and squares are P-GG-OH.
The percentage of bound HL-60 cells is determined with o-phenylenediamine as a substrate for myeloperoxidases released from lysed cells. All assays is performed in duplicates.

leukocyte adhesion = conditions: have been shown (prior report); read-out: IC50 of inhibition of leukocyte adhesion; cited from earlier work

Substance: P-Scrmb: scrambled Esbp peptide sequence polymer conjugate, GKMIDWTWLQLDD (SEQ ID NO: 8) (Methacryloyl-GGGKMIDWTWLQLDD; also: polymer conjugate, FITC)
- internalization and colocalization with lysosomal marker [1]: did not show reasonable internalization or colocalization
- percentage of labeled cells [2]: 6%

Substance: DITWDQLWDLMK [Esbp, reference compound]
- pIC50 (E-selectin; Esbp monomer, FIG. 7A, read-out: IC50): 5.00
- pIC50 (leukocyte adhesion): 8.40

Substance: N-methacryloyl-aminopropyl-Glutamyl-Glycyl-quinic acid [MAP-Glu-Gly-QA]
- pIC50 (E-selectin; monomers, HL-60 adhesion to immobilized E-selectin, 15 min (FIG. 3A), read-out: Inhibition of 50% binding (IC50) value): 2.00

Source: US9867884B2, “Vascular delivery systems” (Ben-Gurion University of the Negev Research and Development …, priority 2008, dated 2018)
